What all share (experiment): MIC, standard broth dilution method in microtitre
Common to all, as to type: cell-based
For orientation: Dilution methods test growth across graded concentrations, often in twofold steps.

Experiment [1] has as its system erythromycin resistant strains of Streptococcus pneumoniae. Here is the method: (§1) Using a standard broth dilution method in microtitre, compounds were tested for antibacterial activity. The compounds in the above examples gave minimum inhibitory concentrations (MICs) less than 1 microgram per millilitre against erythromycin-sensitive and erythromycin-resistant strains of Streptococcus pneumoniae and Streptococcus pyogenes.

Experiment [2] concerns erythromycin resistant strains of Streptococcus pyogenes. Here is the method: as §1
The subject of experiment [3] is M. catarrhalis ATCC 23246. As to conditions: Moraxella catarrhalis, ATCC23246. As to the method:
as §1
(§2) In addition, the MIC (μg/ml) of test compounds against various organisms was determined including:
(§3) S. aureus Smith ATCC 13709, S. pneumoniae SP030, S. pyogenes 3565, E. faecalis ATCC 29212, H. influenzae ATCC 49247, M. catarrhalis ATCC 23246.

Experiment [4] has as its system H. influenzae ATCC 49247. Particulars: Haemophilus influenzae, ATCC49247; H. influenzae ATCC 49247; read-out: MIC. As to the method: as §1, §2, §3
Experiment [5] relates to S. aureus Smith ATCC 13709. As to conditions: Staphylococcus aureus, ATCC13709. As to the method:
as §1, §2, §3

The test system of experiment [6] is E. faecalis ATCC 29212. Particulars: Enterococcus faecalis, ATCC29212. As to the method: as §1, §2, §3
Experiment [7] relates to S. pneumoniae SP030. Particulars: Streptococcus pneumoniae. Here is the method: as §1, §2, §3
In experiment [8] the test system is S. pyogenes 3565. As to conditions: Streptococcus pyogenes. Here is the method: as §1, §2, §3

Counter-ions that a name gives are not always drawn.

As to `CC[C@@H]1OC(=O)[C@H](C)[C@H](O[C@@H]2C[C@](C)(OC)[C@H](OCCCNCCOc3ccc4c(c3)c(=O)c(C(=O)O)cn4CC)[C@H](C)O2)[C@@H](C)[C@H](O[C@H]2O[C@@H](C)C[C@@H](N(C)C)[C@H]2O)[C@](C)(OC)C[C@H](C)C(=O)[C@H](C)[C@H]2OC(=O)O[C@@]12C` [Example 3, 4″-O-{3-[2-(3-Carboxy-1-ethyl-4-oxo-1,4-dihydro-quinolin-6-yloxy)-ethylamino]-propyl}-6-O-methyl-erythromycin A 11,12-carbonate bis trifluoroacetate], the MIC in experiment [1] and in experiment [2] was ≤ 1 µg/mL in each case.
As for `CC[C@@H]1OC(=O)[C@H](C)[C@H](O[C@@H]2C[C@](C)(OC)[C@H](OCCCNCCSc3ccc4c(c3)c(=O)c(C(=O)O)cn4CC)[C@H](C)O2)[C@@H](C)[C@H](O[C@H]2O[C@@H](C)C[C@@H](N(C)C)[C@H]2O)[C@](C)(OC)C[C@H](C)C(=O)[C@H](C)[C@H]2OC(=O)O[C@@]12C` [Example 4, 4″-O-{3-[2-(3-Carboxy-1-ethyl-4-oxo-1,4-dihydro-quinolin-6-ylsulfanyl)-ethylamino]-propyl}-6-O-methyl-erythromycin A 11,12-carbonate bisformate], the MIC in experiment [3] was ≤ 4 µg/mL; in experiment [4], ≤ 4 µg/mL; in experiment [1] it was ≤ 1 µg/mL; in experiment [2] it was ≤ 1 µg/mL.
As for `CC[C@@H]1OC(=O)[C@H](C)[C@H](O[C@@H]2C[C@](C)(OC)[C@H](OCCCNCCCc3ccc4c(c3)c(=O)c(C(=O)O)cn4CC)[C@H](C)O2)[C@@H](C)[C@H](O[C@H]2O[C@@H](C)C[C@@H](N(C)C)[C@H]2O)[C@](C)(OC)C[C@H](C)C(=O)[C@H](C)[C@H](O)[C@@]1(C)O` [Example 5, 4″-O-{3-[3-(3-Carboxy-1-ethyl-4-oxo-1,4-dihydro-quinolin-6-yl)-propylamino]-propyl}-6-O-methyl-erythromycin A bisformate], the MIC in experiment [5], in experiment [6], in experiment [7] and in experiment [8] was ≤ 1 µg/mL in each case.
As for `CC[C@@H]1OC(=O)[C@H](C)[C@H](O[C@@H]2C[C@](C)(OC)[C@H](OCCCNCCCc3ccc4c(c3)c(=O)c(C(=O)O)cn4CC)[C@H](C)O2)[C@@H](C)[C@H](O[C@H]2O[C@@H](C)C[C@@H](N(C)C)[C@H]2O)[C@](C)(OC)C[C@H](C)C(=O)[C@H](C)[C@H]2N(C)C(=O)O[C@@]12C` [Example 7, 4″-O-{3-[2-(3-Carboxy-1-ethyl-4-oxo-1,4-dihydro-quinolin-6-yl)-propylamino]-propyl}-6-O-methyl-11-desoxy-11-(R)-methylamino-erythromycin A 11,12-carbamate formate], the MIC in experiment [5], in experiment [6], in experiment [7], in experiment [8], in experiment [1] and in experiment [2] was ≤ 1 µg/mL throughout.
With `CC[C@@H]1OC(=O)[C@H](C)[C@H](O[C@@H]2C[C@](C)(OC)[C@H](OCCCNCCCc3ccc4c(c3)c(=O)c(C(=O)O)cn4CC)[C@H](C)O2)[C@@H](C)[C@H](O[C@H]2O[C@@H](C)C[C@@H](N(C)C)[C@H]2O)[C@](C)(OC)C[C@H](C)C(=O)[C@H](C)[C@H]2OC(=O)O[C@@]12C` [Example 9, 4″-O-{3-[3-(3-Carboxy-1-ethyl-4-oxo-1,4-dihydro-quinolin-6-yl)propylamino]-propyl}-6-O-methyl-erythromycin A 11,12-carbonate formate], the MIC in experiment [1] and in experiment [2] was ≤ 1 µg/mL each time.
`CC[C@@H]1OC(=O)[C@H](C)[C@H](O[C@@H]2C[C@](C)(OC)[C@H](OCCCNCCNc3cc4c(=O)c(C(=O)O)cn(C5CC5)c4cc3Cl)[C@H](C)O2)[C@@H](C)[C@H](O[C@H]2O[C@@H](C)C[C@@H](N(C)C)[C@H]2O)[C@](C)(OC)C[C@H](C)C(=O)[C@H](C)[C@H]2OC(=O)O[C@@]12C` [Example 10, 4″-O-{3-[2-(3-Carboxy-7-chloro-1-cyclopropyl-4-oxo-1,4-dihydro-quinolin-6-ylamino)ethylamino]-propyl}-6-O-methyl-erythromycin A 11,12-carbonate formate]: the MIC in experiment [1] and in experiment [2] was ≤ 1 µg/mL in each case.
As to `CC[C@@H]1OC(=O)[C@H](C)[C@H](O[C@@H]2C[C@](C)(OC)[C@H](OCCCNCCNc3cc4c(cc3F)c(=O)c(C(=O)O)cn4C3CC3)[C@H](C)O2)[C@@H](C)[C@H](O[C@H]2O[C@@H](C)C[C@@H](N(C)C)[C@H]2O)[C@](C)(OC)C[C@H](C)C(=O)[C@H](C)[C@H]2OC(=O)O[C@@]12C` [Example 11, 4″-O-{3-[2-(3-Carboxy-1-cyclopropyl-6-fluoro-4-oxo-1,4-dihydro-quinolin-7-ylamino)ethylamino]-propyl}-6-O-methyl-erythromycin A 11,12-carbonate formate], the MIC in experiment [1] and in experiment [2] was ≤ 1 µg/mL each time.
With `CC[C@@H]1OC(=O)[C@H](C)[C@H](O[C@@H]2C[C@](C)(OC)[C@H](OCCCNCCNc3nc4c(cc3F)c(=O)c(C(=O)O)cn4CC)[C@H](C)O2)[C@@H](C)[C@H](O[C@H]2O[C@@H](C)C[C@@H](N(C)C)[C@H]2O)[C@](C)(OC)C[C@H](C)C(=O)[C@H](C)[C@H]2OC(=O)O[C@@]12C` [Example 12, 4″-O-{3-[2-(3-Carboxy-1-ethyl-6-fluoro-4-oxo-1,4-dihydro-[1,8]naphthyridin-7-ylamino)ethylamino]-propyl}-6-O-methyl-erythromycin A 11,12-carbonate formate], the MIC in experiment [1] and in experiment [2] was ≤ 1 µg/mL each time.
Consider `CC[C@@H]1OC(=O)[C@H](C)[C@H](O[C@@H]2C[C@](C)(OC)[C@H](OCCNCCCc3ccc4c(c3)c(=O)c(C(=O)O)cn4CC)[C@H](C)O2)[C@@H](C)[C@H](O[C@H]2O[C@@H](C)C[C@@H](N(C)C)[C@H]2O)[C@](C)(O)C[C@H](C)CN(C)[C@@H](C)[C@H]2OC(=O)O[C@@]12C` [Example 16, 4″-O-{2-[3-(3-Carboxy-1-ethyl-4-oxo-1,4-dihydro-quinolin-6-yl)propylamino]ethyl}azithromycin 11,12-carbonate], for which the MIC in experiment [3] and in experiment [4] was ≤ 4 µg/mL throughout.
As for `CC[C@H]1OC(=O)[C@H](C)[C@@H](O[C@H]2C[C@@](C)(OC)[C@@H](OCCCNCCOc3cc4c5c(c3)c(=O)c(C(=O)O)cn5CCC4)[C@H](C)O2)[C@H](C)[C@@H](O[C@@H]2O[C@H](C)CC(N(C)C)[C@H]2O)[C@](C)(OC)C[C@@H](C)C(=O)[C@@H](C)[C@H]2NC(=O)O[C@@]21C` (stereo partly drawn) [Example 22, 4″-O-{3-[2-(2-Carboxy-1-oxo-6,7-dihydro-1H,5H-pyrido[3,2,1-ij]quinolin-9-yloxy)-ethylamino]-propyl}-6-O-methyl-11-desoxy-11-(R)-amino-erythromycin A 11,12-carbamate formate], the MIC in experiment [5], in experiment [6], in experiment [7], in experiment [8], in experiment [1] and in experiment [2] was ≤ 1 µg/mL each time.
On to `CC[C@H]1OC(=O)[C@H](C)[C@@H](O[C@H]2C[C@@](C)(OC)[C@@H](OCCCNCCCc3cnc4c(c3)c(=O)c(C(=O)O)cn4CC)[C@H](C)O2)[C@H](C)[C@@H](O[C@@H]2O[C@H](C)C[C@H](N(C)C)[C@H]2O)[C@](C)(OC)C[C@@H](C)C(=O)[C@@H](C)[C@H]2NC(=O)O[C@@]21C` [Example 24, 4″-O-{3-[3-(3-Carboxy-1-ethyl-4-oxo-1,4-dihydro-6-[1,8]naphthryidinyl)-propylamino]-propyl}-6-O-methyl-11-desoxy-11-(R)-amino-erythromycin A 11,12-carbamate formate], for which the MIC in experiment [1] and in experiment [2] was ≤ 1 µg/mL in each case.
As to `CC[C@H]1OC(=O)[C@H](C)[C@@H](O[C@H]2C[C@@](C)(OC)[C@@H](OCCCNCCCc3cc4c5c(c3)c(=O)c(C(=O)O)cn5CCC4)[C@H](C)O2)[C@H](C)[C@@H](O[C@@H]2O[C@H](C)C[C@H](N(C)C)[C@H]2O)[C@](C)(OC)C[C@@H](C)C(=O)[C@@H](C)[C@H]2NC(=O)O[C@@]21C` [Example 25, 4″-O-{3-[3-(2-Carboxy-1-oxo-6,7-dihydro-1H,5H-pyrido[3,2,1-ij]quinolin-9-yl)-propylamino]-propyl}-6-O-methyl-11-desoxy-11-(R)-amino-erythromycin A 11,12-carbamate formate], the MIC in experiment [5], in experiment [6], in experiment [7], in experiment [8], in experiment [1] and in experiment [2] was ≤ 1 µg/mL throughout.
As to `CCc1cc(C(=O)O)c(=O)n2ccc(NCCNCCCO[C@H]3[C@H](C)O[C@@H](O[C@H]4[C@H](C)[C@@H](O[C@@H]5O[C@H](C)C[C@H](N(C)C)[C@H]5O)[C@](C)(OC)C[C@@H](C)C(=O)[C@@H](C)[C@H]5NC(=O)O[C@]5(C)[C@@H](CC)OC(=O)[C@@H]4C)C[C@@]3(C)OC)cc12` [Example 26, 4″-O-{3-[2-(3-Carboxy-1-ethyl-4-oxo-4-H-quinolizin-7-ylamino)-ethylamino]-propyl}-6-O-methyl-11-desoxy-11-(R)-amino-erythromycin A 11,12-carbamate formate], the MIC in experiment [1] and in experiment [2] was ≤ 1 µg/mL each time.
